The values below come from patent publication US5807819A, “Peptides useful for altering bone resorption” (priority 1995, dated 1998).

Where a SMILES comes first, the peptide text is derived from it. Bridges are numbered along the chain shown (N, C = ends). [ ]: non-standard residue; d: D form. Tic = O=C(O)[C@@H]1Cc2ccccc2CN1; Pen = CC(C)(S)[C@H](N)C(=O)O; Mpa = O=C(O)CCS

For assay [1], the system named is αV β3 integrin receptor. Briefly: Series of in vitro assays of Example II for potency and selectivity (FIG. 2). As to conditions: for potency classification / receptor selectivity classification: summary of assays; for activity (FIG. 2): minimal-element peptides. An excerpt: Such peptides can include, for example, peptides within the pharmacophore groups exemplified herein or peptides within other pharmacophore groups. […] The selectivity of a peptide for an integrin receptor involved in osteoclast binding to bone can be determined, for example, using the integrin receptor assays and cell attachment and detachment assays described herein.
Comparison of the IC50 values generated using the JY cell assay and the αV β3 ELISA, which measure binding of the αV β3 receptor involved in osteoclast binding to bone, with the αV β5 and α5 β1 receptor-specific ELISAs, which represent receptors that likely are not involved in osteoclast attachment, provides insight into the receptor selectivity of the peptides.

A short description of assay [2]: Parathyroid hormone-induced hypercalcemia in mice. The format is in vivo, Swiss-Webster mice. To be noted: parathyroidectomized mice, 4 hr i.v. peptide infusion, FIG. 9. An excerpt: Parathyroid hormone (PTH) activates osteoclasts, which are involved in bone resorption. Associated with the increased osteoclast activity is an increase in serum calcium. The PTH-induced hypercalcemia assay measures the level of serum calcium, which is an indication of bone resorption in a subject (Fischer et al., Endocrinology 132:1411-1413 (1993), which is incorporated herein by reference).
Swiss-Webster mice, which had been parathyroidectomized two weeks prior to beginning the assay, were obtained from Taconic Lab Animals and Services (Germantown N.Y.). Femoral vein catheters (PE-50 fused with PE10 polyethylene tubing; Becton Dickinson; Parsippany, N.J.) were installed in the mice, flushed and locked with heparinized saline (1:10), sutured to adjacent muscle and internalized within the inguinal space of the incision before closing the incision with wound clips. […]
The experiment was initiated by feeding the mice a calcium-deficient diet overnight, then injecting the mice the following morning with a bolus of 0.2 mg PTH/kg (hPTH 1-34; Bachem; Torrance Calif.), intravenously. […] Various doses of a peptide or vehicle were infused into an animal for 4 hr, then ionized serum calcium again was measured. […] Serum calcium measurements were expressed as the difference between the value 30 min before the PTH pulse and 4 hr after peptide infusion was started. […]

A further assay relates to chick osteoclasts. Briefly: Chick cell detachment assay (osteoclasts vs total cells). As to conditions: FIG. 5, serum-coated plates. The format is cell-based.
The subject of a further assay is rat osteoclasts. Briefly: Rat osteoclast attachment assay compared with MG63/NRK cell attachment. The format is cell-based. As to conditions: FIGS. 7 and 8, FCS substrate. The method, then: To determine the effect of a peptide on the attachment of rat osteoclasts in vitro, 100 μl aliquots of the rat pup bone cell suspension described in Example II.B.2., above, were added in triplicate to 96 well "MAXISORP" plates coated with specific substrates or with FCS. Substrate coated plates were used to determine the ability of peptides to inhibit attachment or induce detachment of an osteoclast from a ligand such as vitronectin, fibronectin, osteopontin or collagen I (Collaborative Research), which are ligands present in bone. Substrates were added to 96 well plates (50 μl of a 5-10 μg/ml solution in sodium carbonate, pH 9.5) and incubated for 2 hr at 37° C. For FCS control wells, 100 μl 10% FCS was added. Wells were aspirated, then washed 2× with PBS and blocked with 1% bovine serum albumin in PBS for 2 hr at 37° C. Wells were aspirated and washed again 2× with PBS. Cells were seeded in duplicate at 4×10^4 cells/well. […]
Following incubation, the medium and nonadherent cells were removed by aspiration from each well. […] Adherent osteoclasts were counted by light microscopy. […]
MG63 and NRK cell lines were purchased from ATTC (Rockville Md.). […] Following staining, the stain was extracted with 20% acetic acid and the OD562 of the extracted stain was determined. […]
Selectivity of a peptide can be determined by comparing the results of FIGS. 7 and 8 (see, also FIG. 2).

Assay [3] deals with platelet αIIb β3 integrin receptor. Briefly: Platelet aggregation assay. The format is cell-based. As to conditions: ADP-induced, platelet-rich plasma from heparinized blood; read-out: IC50 inhibiting platelet aggregation. Here is the method: This example provides a method for performing a platelet aggregation assay, which is a measure of peptide binding to the platelet αIIb β3 integrin receptor.
Platelet-rich plasma (PRP) was prepared fresh from heparinized whole blood. 0.6 ml PRP was placed in a 1.5 ml microcentrifuge tube and centrifuged for 4 min at 14,000×g. Following centrifugation, 0.5 ml supernatant (platelet poor plasma; PPP) was transferred to a 1 ml silicon coated aggregometer tube (Chrono-Log Corp.; Havertown Pa.) and placed in the PPP slot of a Chrono-Log Model 400VS aggregometer (see Tschopp et al., Thromb. Haem. 72:119-124 (1994), which is incorporated herein by reference).
Platelet concentration of the PRP sample was determined using a cell counter and the sample was diluted with homologous PPP to obtain 300,000 platelets/μl. 0.5 ml of the diluted PRP was placed in an aggregometer tube with a stir bar and incubated for 5 min at 37° C. without stirring. The tube was transferred to the PRP slot in the aggregometer and the sample was stirred at 1200 rpm for 5-10 min at 37° C. […]
Platelet aggregation was initiated by adding adenosine diphosphate (ADP) to a concentration of 10 μM. Platelet aggregation was measured in 2 mm units from baseline (before ADP addition) to response at two min from the time of ADP addition or maximal response (if before 2 min), whichever is larger. […]

Assay [4] concerns αV β3 integrin receptor. To be noted: rabbit, in vivo; cited from earlier work.

Description for chick osteoclasts: Peptides were evaluated for their ability to detach osteoclasts from a matrix consisting of serum-coated microtiter plates.
Briefly, chick long bones (femur and tibia) were dissected free of soft tissue and minced in prewarmed minimum essential medium (MEM, pH 7.2; Irvine Scientific; Irvine, Calif.) with Earl's salts, supplemented with 10% heat-inactivated fetal calf serum (FCS) and 200 mM glutamine and containing 100 μg/ml streptomycin and 100 IU/ml penicillin. Cells were removed from bone fragments by vigorous shaking in a capped centrifuge tube. Large particulate material was allowed to settle prior to removal of the cell suspension. After repeated agitation of the cells with a large transfer pipette, 100 μl aliquots of cells were added in triplicate to Corning 96 well microtiter plates that had been preincubated for 1 hr with 100 μl of MEM/FCS media.
The cells were incubated for 90 min at 37° C. in an atmosphere containing 10% CO2. Following incubation, the cell layers were carefully washed 2× with 200 μl sterile PBS, then 100 μl of fresh MEM/FCS was added. Peptides were diluted in the same medium and added to each well. The cells were incubated overnight as described above. […] 5 min using 0.1% crystal violet and multinucleated osteoclasts were counted by light microscopy. […]

As for `CC(=O)N[C@@H]1C(=O)N[C@@H](Cc2ccccc2)C(=O)N[C@@H](C)C(=O)N[C@@H](CCCNC(=N)N)C(=O)NCC(=O)N[C@@H](CC(=O)O)C(=O)N[C@@H](CC(N)=O)C(=O)N2CCC[C@H]2C(=O)N[C@H](C(N)=O)CSSC1(C)C` [peptide 214] (Ac-[Pen]FARGDNPC-NH2; disulfide 1-9), the potency classification entry in the assay with αV β3 integrin receptor [1] is “particularly potent”.

Take `CC(C)[C@@H]1NC(=O)[C@H](CC(=O)O)NC(=O)[C@H](CC(=O)O)NC(=O)CNC(=O)[C@H](CCCNC(=N)N)NC(=O)CCSSC[C@@H](C(N)=O)NC1=O` [compound 191] ([Mpa]RGDDVC-NH2; disulfide 1-7): in assay [2], the “PTH-induced rise in serum ionized calcium” value was “decreased the PTH-induced rise in serum ionized calcium in a dose responsive manner”.

Consider `CC(C)[C@@H]1NC(=O)[C@H](CC(=O)O)NC(=O)[C@H](CC(=O)O)NC(=O)CNC(=O)[C@H](CCCNC(=N)N)NC(=O)CC[C@@H](C(N)=O)NC1=O` [peptide 386, RGDDVE-NH2] (RGDDVE-NH2; lactam N-6), for which the “selective detachment of osteoclasts compared to other cell types” value in the assay with chick osteoclasts is “caused selective detachment of osteoclasts as compared to other cell types”. Moreover, the “PTH-induced rise in serum ionized calcium” value in assay [2] is given as “relatively low level of serum calcium”. For the same compound, in the assay with rat osteoclasts, the “selectivity: osteoclast attachment versus MG63 or NRK attachment” value is given as “highly active on osteoclast attachment but were less active on MG63 or NRK attachment”. Also, in the assay on αV β3 integrin receptor [1], the “activity (FIG. 2)” value was “demonstrate activity” and the receptor selectivity classification entry is “particularly receptor selective”.

One may read the IC50 as the concentration at which inhibition is half-maximal. As to `COc1ccc(C[C@@H]2NC(=O)[C@H](CC(=O)O)NC(=O)CNC(=O)[C@H](CCCNC(=N)N)NC(=O)CC[C@@H](C(N)=O)NC(=O)[C@H](CCCNC(=N)N)NC2=O)cc1` [compound 940, RGD(YOMe)RE-NH2], the IC50 in assay [3] worked out at 820 nM.

For `CC(=O)N[C@H]1CSSC[C@@H](C(N)=O)NC(=O)[C@@H]2Cc3ccccc3CN2C(=O)[C@H](CO)NC(=O)[C@H](CC(=O)O)NC(=O)CNC(=O)[C@H](CCCNC(=N)N)NC1=O` [compound 812, Ac-CRGDS(Tic)C-NH2] (Ac-CRGDS[Tic]C-NH2; disulfide 1-7), in the assay on αV β3 integrin receptor [1], the “activity (FIG. 2)” value was “demonstrate activity” and the potency classification result is listed as “particularly potent”.

Turning to `CC(=O)N[C@H]1CSSC(C)(C)[C@@H](C(N)=O)NC(=O)[C@@H]2CCCN2C(=O)[C@H](CC(N)=O)NC(=O)[C@H](CC(=O)O)NC(=O)CNC(=O)[C@H](CCCNC(=N)N)NC1=O` [compound 228] (Ac-CRGDNP[Pen]-NH2; disulfide 1-7), the receptor selectivity classification result in the assay with αV β3 integrin receptor [1] is reported as “particularly receptor selective”.

As to G(Pen)GRGDSPCA, the neointimal hyperplasia result with αV β3 integrin receptor [4] was “can inhibit neointimal hyperplasia”.
